SMILES strings stand for the structures.

One may read the IC50 as the point on the concentration scale where inhibition reaches its midpoint.

A short description of this assay: Antagonist activity at P2Y12 receptor in human blood platelets assessed as inhibition of ADP-induced platelet aggregation compound preincubated with blood for 5 mins prior to ADP addition by electrode aggregometry assay.

Take `O=C(CCC(=O)Nc1ccc2[nH]c3ccccc3c(=O)c2c1)Nc1ccc2[nH]c3ccccc3c(=O)c2c1`: the IC50 was 6.49 µM.

Regarding `O=C(CCCCCCCC(=O)Nc1ccc2[nH]c3ccccc3c(=O)c2c1)Nc1ccc2[nH]c3ccccc3c(=O)c2c1`, the IC50 turned out to be 35 µM. Take `CCOC(=O)c1cc(NC(=O)c2cc(NC(=O)c3cc(NC(=O)c4c(-c5ccccc5)noc4C)cn3C)cn2C)cn1C`: the 50% inhibitory concentration (IC50) amounted to 4.2 µM.

The record behind these values is BindingDB's records for PubMed 36846363 (Al-Ahliyya Amman University, 2023).
